According to patent publication US20130156791A1, “METHODS AND PHARMACEUTICAL COMPOSITIONS FOR THE TREATMENT OF HIV-1 INFECTIONS” (priority 2010, published 2013):

Key:
[1] = test system: HIV-1 envelope mediated hemifusion/fusion of HeLa Env^+ and HeLa CD4^+ cells; test: Hemifusion and cell-cell fusion assays, HeLa Env+ / HeLa CD4+ coculture; type: cell-based, human; conditions: absence or presence of 70 mM KCl for 3 h; 5 μM AMD3100 (Fig. 4d)
[2] = test system: CD4^+CXCR4^+ cells infected with HIVNL43
[3] = test system: PHA/IL-2 stimulated human lymphoblasts infected with HIVNDK; test: Plasma membrane depolarization after HIVNDK infection (DiBac4(3), flow cytometry); type: cell-based; conditions: 1 hour of HIVNDK infection (Fig. 4e)
[4] = test system: CD4^+CXCR4^+ cells; test: Plasma membrane depolarization of uninfected cells (DiBac4(3), flow cytometry); type: cell-based, human; conditions: 70 mM KCl for 3 h (Fig. 4b,c)
[5] = test system: HIVBaL; type: cell-based, HIV-1; conditions: activated T-lymphoblasts (Fig. 2a, S2a)
[6] = test system: HIVNDK; type: cell-based, HIV-1; conditions: activated T-lymphoblasts (Fig. 2a, S2a)
[7] = test system: HIVNDK infected (PHA/IL-2 stimulated) lymphoblasts; type: cell-based, human; conditions: HIVNDK (Fig. 6d)
[8] = test system: CD4^+CXCR4^+ target cells; type: cell-based, human
Description: Supplementary FIG. 1 Pannexin-1-dependent ATP release during HIV-1 infection and during HIV-1 Env-mediated fusion. (a) Effect of apyrase and AMD3100 on target cell viability. The viability of cells incubated for 3 hours with different concentrations of apyrase or AMD3100 (as indicated) and then infected with HIV-1NL43 for 2 days, was assessed by the MTT (3-[4,5-dimethylthiazol-2-yl]-2,5-diphenyl tetrazolium bromide) assay, as detailed in Methods. (b) Effects of apyrase and AMD3100 on ATP release detected during HIV-1 infection. […] After 2 hours of infection, ATP release was determined as described in Methods. […] Cell viability in c was assessed as in a (mean±s.e.m; n=3; *P<0.05). Fusion between HIV-1 Env-expressing cells (that also express Tat protein) and CD4^+CXCR4^+ target cells (that contain Tat-inducible β-galactosidase) was determined by measuring β-galactosidase (β-Gal) activity (d), as described in Methods. (e) Effects of Pannexin-1 knockdowns on HIV-1 Env-mediated fusion, as described in (c). Data in (a), (b), (c), (d) and (e) were determined in 3 independent experiments (mean±s.e.m; *P<0.05).

[9] = test system: HIVNL43; test: Target cell infectivity, Tat-inducible β-galactosidase reporter; type: cell-based, HIV-1; conditions: HIVNL43, MOI 1, β-Gal reporter, 24 h after infection
[10] = test system: CD4/CXCR4-expressing cells cocultured with Env-expressing cells; test: HIV-1 envelope mediated conjugate formation (actin polymerization between two interacting cells); conditions: coculture of Env-expressing and CD4/CXCR4-expressing cells (Fig. 1d)
Description: Error bars indicate SD of 3 independent determinations (means±SD; *P<0.05). (d) Effect of ATP depletion by apyrase on HIV-1 envelope mediated actin polymerization. Actin polymerization between two interacting cells was determined in 3 independent experiments (means±SEM; *P<0.05) by fluorescent microscopy (e) Localization of pannexin-1 at the contact site between primary HIV-1-infected lymphoblasts (green) and primary uninfected lymphoblasts, visualized by confocal microscopy.
HeLa cells stably transfected with the Env gene of HIV-1 LAI/IIIB (HeLa Env) and HeLa cells transfected with CD4 (HeLa CD4) were cultured alone or together at a 1:1 ratio in Dulbecco's modified Eagle's medium supplemented with 10% FCS, 2 mM L-glutamine and penicillin/streptomycin (Invitrogen) in the absence or in presence of tested molecules.

| Molecule | fusion of Env+ and CD4+/CXCR4+ cells [1] | plasma membrane depolarization induced by HIV-1 infection [3] | replication of R5-tropic HIV [5] | replication of X4-tropic HIV [6] | CD4+ T cell depletion / death of activated CD4+ T lymphoblasts (7-AAD uptake) [7] | viral infection of lymphoblasts (intracellular p24 antigen) [7] | also measured |
| --- | --- | --- | --- | --- | --- | --- | --- |
| c1cc(CN2CCCNCCNCCCNCC2)ccc1CN1CCCNCCNCCCNCC1 [AMD3100] | reduced | abolished |  |  |  |  | ATP release during HIV-1 infection [2]: prevented ATP release |
| [Cl-].[K+] [KCl] | enhanced the fusion |  |  |  |  |  | plasma membrane depolarization [4]: strongly induced membrane depolarization |
| Nc1ncnc2c1ncn2[C@@H](C=O)O[C@@H](C=O)COP(=O)(O)OP(=O)(O)OP(=O)(O)O [OxATP, oxidized ATP] |  |  | blocked the replication | blocked the replication |  |  |  |
| Cc1nc(N=Nc2ccc(S(=O)(=O)O)cc2S(=O)(=O)O)c(COP(=O)(O)O)c(C=O)c1O [PPADS] |  |  | blocked the replication | blocked the replication | reduces | reduces viral infection |  |
| Cc1ccc(C(=O)Nc2ccc(S(=O)(=O)O)c3cc(S(=O)(=O)O)cc(S(=O)(=O)O)c23)cc1NC(=O)c1cccc(NC(=O)Nc2cccc(C(=O)Nc3cc(C(=O)Nc4ccc(S(=O)(=O)O)c5cc(S(=O)(=O)O)cc(S(=O)(=O)O)c45)ccc3C)c2)c1 [suramin] |  |  | blocked the replication | blocked the replication | reduces | reduces viral infection |  |
| apyrase |  | abolished |  |  |  |  | toxicity / target cell viability [8]: non-toxic; HIV-1 infection (target cell infectivity) [9]: prevented HIV-1 infection; conjugate formation revealed by actin polymerization between two interacting cells [10]: abolished conjugate formation |
